In general, pIC50 refers to the IC50 on a negative log10 scale, so that one unit is a factor of ten.

The test can be described thus: APP processing: AlphaLisa assay of secreted Aβ40 and Aβ42 from SP4CT cells. Type of test: cell-based. The conditions noted are these: Homo sapiens, SH-SY5Y cells expressing amyloid β protein (SP4CT cells). The protocol:
APP Processing (Assay Quantitates Secreted Aβ Analytes from Cell Lines):
The effect of compounds on the abundance of Aβ40 and Aβ42 peptides generated from SH-SY5Y cells expressing amyloid β protein (SP4CT cells) are determined by an AlphaLisa™ assay. Analogous to an ELISA assay, generation of […] AlphaLisa™ assay requires “donor” and “acceptor” beads to be brought in close proximity by specific antibody recognition of either Aβ40 or Aβ42 peptides. The assay is accomplished by removing media from compound-treated SP4CT cells to two different microplates, followed by the addition of donor beads conjugated with streptavidin binding a biotinylated anti-amyloid β monocolonal antibody (clone 4G8). Acceptor beads directly conjugated with anti-Aβ40 monoclonal antibody (G210) are added to one microplate and anti-Aβ42 monoclonal antibody (12F4) acceptor beads were added to the other. Abundance of Aβ40 and Aβ42 is directly proportional to the luminescent signal generated following excitation of donor beads by laser light.
In general terms: Alpha assays give light when donor and acceptor beads are brought close together.

Where [1] appears, read: read-out: IC50, inhibition of production of Aβ40 peptide.
Setting [2] is: read-out: IC50, inhibition of production of Aβ42 peptide.

pIC50: −log10 of the molar value. Read-outs that look alike come from different tables or passages of the source.

Consider `CCn1nc(Oc2ccc(C(F)(F)F)cc2)cc1-c1cccc(C(C)(C)NS(=O)(=O)NCC(C)C)c1` [Example 17, N-[1-(3-{1-ethyl-3-[4-(trifluoromethyl)phenoxy]-1H-pyrazol-5-yl}phenyl)-1-methylethyl]-N′-isobutylsulfamide], for which the negative-log IC50 (pIC50) is, setting by setting: under setting [1], > 6.70; under setting [2], > 6.70.

Take `O=S(=O)(CC(F)(F)F)NC1(c2cccc(-c3cc(Oc4ccc(C(F)(F)F)cc4)n(CC4CCOCC4)n3)c2)COC1` [Example 139, N-(3-{3-[5-(4-trifluoromethylphenoxy)-1-(tetrahydro-2H-pyran-4-ylmethyl)-1H-pyrazol-3-yl]phenyl}oxetan-3-yl)-2,2,2-trifluoroethanesulfonamide]: the pIC50 was > 6.70 under setting [1] and > 6.70 under setting [2].

Consider `CCn1nc(-c2cccc(C3(NS(=O)(=O)NC)CC3)c2)cc1Oc1ccc(C(F)(F)F)cc1` [Example 48, N-[1-(3-{1-ethyl-5-[4-(trifluoromethyl)phenoxy]-1H-pyrazol-3-yl}phenyl)cyclopropyl]-N′-methylsulfamide], for which the pIC50 reads like this: under setting [1], > 6.70; under setting [2], > 6.70.

Consider `CCn1nc(Oc2ccc(C(F)(F)F)cc2)cc1-c1cccc(C(C)(C)NS(=O)(=O)CC(F)(F)F)c1` [Example 20, N-[1-(3-{1-ethyl-3-[4-(trifluoromethyl)phenoxy]-1H-pyrazol-5-yl}phenyl)-1-methylethyl]-2,2,2-trifluoroethanesulfonamide], for which the pIC50 was > 6.70 under setting [1] and > 6.70 under setting [2].

Take `CCn1nc(-c2cccc(C(C)(C)NS(=O)(=O)CC(F)(F)F)c2)cc1Oc1ccc(CNCC2(C)CCCO2)cc1` (centres unmarked) [Example 90, N-[1-(3-{1-ethyl-5-[4-({[(2-methyltetrahydrofuran-2-yl)methyl]amino}methyl)phenoxy]-1H-pyrazol-3-yl}phenyl)-1-methylethyl]-2,2,2-trifluoroethanesulfonamide]: the pIC50 was > 6.70 under setting [1] and > 6.70 under setting [2].

On to `CCn1nc(Oc2ccc(C(F)(F)F)cn2)cc1-c1cccc(C2(NS(=O)(=O)CC(F)(F)F)CC2)c1` [Example 32, N-{1-[3-(1-ethyl-3-{[5-(trifluoromethyl)pyridin-2-yl]oxy}-1H-pyrazol-5-yl)phenyl]cyclopropyl}-2,2,2-trifluoroethanesulfonamide], for which the pIC50 under setting [1] was > 6.70 and the pIC50 under setting [2] is > 6.70.

For the compound `CN(C)C(=O)Cn1nc(-c2cccc(C3(NS(=O)(=O)CC(F)(F)F)COC3)c2)cc1Oc1ccc(C(F)(F)F)cc1` [Example 131, 2-[5-(4-trifluoromethylphenoxy)-3-(3-{3-[(2,2,2-trifluoroethylsulfonyl)amino]oxetan-3-yl}phenyl)-1H-pyrazol-1-yl]-N,N-dimethylacetamide], the pIC50 by setting is: under setting [1], > 6.70; under setting [2], > 6.70.

In the case of `CCn1nc(Oc2ccc(C(F)(F)F)cc2F)cc1-c1cccc(C(C)(C)NS(=O)(=O)CC(F)(F)F)c1` [Example 21, N-[1-(3-{1-ethyl-3-[2-fluoro-4-(trifluoromethyl)phenoxy]-1H-pyrazol-5-yl}phenyl)-1-methylethyl]-2,2,2-trifluoroethanesulfonamide], the pIC50 is > 6.70 under setting [1] and > 6.70 under setting [2].

For the compound `CCn1nc(-c2cc(F)cc(C(C)(C)NS(=O)(=O)CC(F)(F)F)c2)cc1Oc1ccc(C(F)(F)F)cc1` [Example 15, N-[1-(3-{1-ethyl-5-[4-(trifluoromethyl)phenoxy]-1H-pyrazol-3-yl}-5-fluorophenyl)-1-methylethyl]-2,2,2-trifluoraethanesulfonamide], the pIC50 was > 6.70 under setting [1] and > 6.70 under setting [2].

`CCn1nc(-c2cncc(C3(NS(=O)(=O)CC(F)(F)F)CC3)c2)cc1Oc1ccc(C(F)(F)F)cc1` [Example 52, N-[1-(5-{1-ethyl-5-[4-(trifluoromethyl)phenoxy]-1H-pyrazol-3-yl}pyridin-3-yl)cyclopropyl]-2,2,2-trifluoroethanesulfonamide]: the pIC50 was > 6.70 under setting [1] and > 6.70 under setting [2].

Consider `CCn1nc(Oc2ccc(C(F)(F)F)cc2)cc1-c1cccc(C2(NS(=O)(=O)NCCC(F)(F)F)COC2)c1` [Example 102], for which the pIC50 under setting [1] was > 6.70 and the pIC50 under setting [2] is > 6.70.

On to `CCn1nc(-c2cccc(C3(NS(=O)(=O)CC(F)(F)F)CC3)c2)cc1Oc1ncc(C(F)(F)F)cc1Cl` [Example 39, N-{1-[3-(5-{[3-chloro-5-(trifluoromethyl)pyridin-2-yl]oxy}-1-ethyl-1H-pyrazol-3-yl)phenyl]cyclopropyl}-2,2,2-trifluoroethanesulfonamide], for which the pIC50 by setting is: under setting [1], > 6.70; under setting [2], > 6.70.

On to `CCn1nc(-c2cccc(C(C)(C)NS(=O)(=O)CC(F)(F)F)c2)cc1Oc1ccc(C(=O)C(F)(F)F)cc1` [Example 73, N-[1-(3-{1-ethyl-5-[4-(trifluoroacetyl)phenoxy]-1H-pyrazol-3-yl}phenyl)-1-methylethyl]-2,2,2-trifluoroethanesulfonamide], for which the pIC50 by setting is: under setting [1], > 6.70; under setting [2], > 6.70.

For `CCn1nc(-c2cccc(C3(NS(=O)(=O)NCC(F)(F)F)CC3)c2)cc1Oc1ccc(C(F)(F)F)cc1` [Example 36, N-[1-(3-{1-ethyl-5-[4-(trifluoromethyl)phenoxy]-1H-pyrazol-3-yl}phenyl)cyclopropyl]-N′-(2,2,2-trifluoroethyl)sulfamide], the pIC50 under setting [1] was > 6.70 and the pIC50 under setting [2] is > 6.70.

With `CCn1nc(-c2cccc(C(C)(C)NS(=O)(=O)CC(F)(F)F)c2)cc1Oc1ccc(C(C)F)cc1` (centres unmarked) [Example 68, N-[1-(3-{1-ethyl-5-[4-(1-fluoroethyl)phenoxy]-1H-pyrazol-3-yl}phenyl)-1-methylethyl]-2,2,2-trifluoroethanesulfonamide], the pIC50 was > 6.70 under setting [1] and > 6.70 under setting [2].

With `O=S(=O)(CC(F)(F)F)NC1(c2cccc(-c3cc(Oc4ccc(C(F)(F)F)cc4)nn3Cc3cocn3)c2)COC1` [Example 135, N-(3-{3-[3-(4-trifluoromethylphenoxy)-1-(1,3-oxazol-4-ylmethyl)-1H-pyrazol-5-yl]phenyl}oxetan-3-yl)-2,2,2-trifluoroethanesulfonamide], the pIC50 runs as follows: under setting [1], > 6.70; under setting [2], > 6.70.

As for `CCn1nc(-c2cccc(C(C)(C)NS(=O)(=O)CC(F)(F)F)c2)cc1Oc1ccc(CN2CC=C(C(F)(F)F)CC2)cc1` [Example 80, N-(1-{3-[1-ethyl-5-(4-{[4-(trifluoromethyl)-3,6-dihydropyridin-1(2H)-yl]methyl}phenoxy)-1H-pyrazol-3-yl]phenyl}-1-methylethyl)-2,2,2-trifluoroethanesulfonamide], the pIC50 under setting [1] is > 6.70 and the pIC50 under setting [2] is > 6.70.

For `CCCNS(=O)(=O)NC1(c2cccc(-c3cc(Oc4ccc(C(F)(F)F)cc4)n(CC)n3)c2)CC1` [Example 46, N-[1-(3-{1-ethyl-5-[4-(trifluoromethyl)phenoxy]-1H-pyrazol-3-yl}phenyl)cyclopropyl]-N′-propylsulfamide], the pIC50 runs as follows: under setting [1], > 6.70; under setting [2], > 6.70.

With `CCn1nc(-c2cccc(C(C)(C)NS(=O)(=O)CC(F)(F)F)c2)cc1Oc1ccc(C(C)O)cc1` (centres unmarked) [Example 65, N-[1-(3-{1-ethyl-5-[4-(1-hydroxyethyl)phenoxy]-1H-pyrazol-3-yl}phenyl)-1-methylethyl]-2,2,2-trifluoroethanesulfonamide], the pIC50 is > 6.70 under setting [1] and > 6.70 under setting [2].

For the compound `CCn1nc(-c2cccc(C(C)(C)NS(=O)(=O)CC(F)(F)F)c2)cc1Oc1ccc(C(C)=O)cc1` [Example 69, N-(1-{3-[5-(4-acetylphenoxy)-1-ethyl-1H-pyrazol-3-yl]phenyl}-1-methylethyl)-2,2,2-trifluoroethanesulfonamide], the pIC50 runs as follows: under setting [1], > 6.70; under setting [2], > 6.70.

With `CCn1nc(-c2cccc(C(C)(C)NS(=O)(=O)CC(F)(F)F)c2)cc1Oc1ccc(CNCc2ccncc2)cc1` [Example 89, N-(1-{3-[1-ethyl-5-(4-{[(pyridin-4-ylmethyl)amino]methyl}phenoxy)-1H-pyrazol-3-yl]phenyl}-1-methylethyl)-2,2,2-trifluoroethanesulfonamide], the pIC50 under setting [1] was > 6.70 and the negative logarithm of the IC50 (pIC50) under setting [2] was > 6.70.

For the compound `CCn1nc(-c2cccc(C3(NS(=O)(=O)NC4CCC(F)(F)C4)COC3)c2)cc1Oc1ccc(C(F)(F)F)cc1` (centres unmarked) [Example 99], the pIC50 under setting [1] is > 6.70 and the pIC50 under setting [2] was > 6.70.

Turning to `CCn1nc(-c2cccc(C(C)(C)NS(=O)(=O)NC3CCC3)c2)cc1Oc1ccc(C(F)(F)F)cc1` [Example 3, N-cyclobutyl-N′-[1-(3-{1-ethyl-5-[4-(trifluoromethyl)phenoxy]-1H-pyrazol-3-y}phenyl)-1-methylethyl]sulfamide], the pIC50 is > 6.70 under setting [1] and > 6.70 under setting [2].

With `CCn1nc(-c2cccc(C(C)(C)NS(=O)(=O)CC(F)(F)F)c2)cc1Oc1ccc(CNC2CCCOC2)cc1` (centres unmarked) [Example 92, N-{1-[3-(1-ethyl-5-{4-[(tetrahydro-2H-pyran-3-ylamino)methyl]phenoxy}-1H-pyrazol-3-yl)phenyl]-1-methylethyl}-2,2,2-trifluoroethanesulfonamide], the pIC50 runs as follows: under setting [1], > 6.70; under setting [2], > 6.70.

In the case of `CCn1nc(-c2cccc(C(C)(C)NS(=O)(=O)CC(F)(F)F)c2)c(I)c1Oc1ccc(C(F)(F)F)cc1` [Example 116, N-[2-(3-{1-ethyl-4-iodo-5-[4-(trifluoromethyl)phenoxy]-1H-pyrazol-3-yl}phenyl)propan-2-yl]-2,2,2-trifluoroethanesulfonamide], the pIC50 is, setting by setting: under setting [1], > 6.70; under setting [2], > 6.70.

For the origin of these results see patent publication US8871796B2, “Diaryl ether derivatives as notch sparing gamma secretase inhibitors” (Merck Sharp & Dohme Corp., priority 2009, dated 2014).
